{
  "source": "patent US7312240B2",
  "about": "“Conformationally constrained paclitaxel analogs and their use as anticancer and anti-Alzheimers agents” (Virginia Tech Intellectual Properties, Inc., priority 2004, dated 2007)",
  "key": {"[1]": {"tested_on": "paclitaxel resistant and epothilone A resistant cell lines", "assay": "Activity against paclitaxel resistant and epothilone A resistant cell lines", "assay_type": "cell-based"}, "PC-3 prostate cell line": {"tested_on": "PC-3 prostate cell line", "assay": "Cytotoxicity against PC3 prostate cancer cell line", "settings": "for IC50(cp)/IC50(tx) PC3: ratio of compound IC50 to Taxol IC50, PC3"}, "[2]": {"tested_on": "A2780 ovarian cancer cell line", "assay": "Cytotoxicity against A2780 ovarian cancer cell line", "settings": "for times more potent/active than PTX against A2780: A2780, relative to PTX; for IC50(cp)/IC50(tx) A2780: ratio of compound IC50 to Taxol IC50, A2780"}, "GDP-tubulin": {"tested_on": "GDP-tubulin", "assay": "Critical concentration determination of tubulin assembly", "assay_type": "biochemical", "settings": "Taxoid concentration 10 μM; 37° C., PME buffer, 4% DMSO", "method": "Critical Concentration Determination. The critical concentration of tubulin in the presence of 10 μM Taxol or Taxol analog was determined from assembly experiments performed at 37° C. with GDP-tubulin in PME buffer (100 mM PIPES, 2 mM MgSO4, 1 mM EGTA, pH=6.90) containing 4% DMSO. The extent of assembly was measured at different tubulin concentrations (0.5-6 μM) by light scattering (apparent absorption at 350 nm). Critical concentrations were calculated from the x-intercepts of plots of apparent A350 nm VS. tubulin concentration."}, "[3]": {"tested_on": "Taxol binding site on crosslinked microtubules (polymerized tubulin)", "assay": "Competition binding with fluorescent Taxol N-AB-PT", "settings": "for Inhibit binding F-Taxol: 10 μM Taxol or Taxoid, 5 μM N-AB-PT, 5 μM crosslinked microtubules", "method": "Competition Binding Experiments. The relative affinities of Taxol and derivatives for polymerized tubulin were assessed by competition assays. Crosslinked microtubules were prepared in glycerol assembly buffer (10 mM phosphate, 1 mM EGTA, 0.1 mM GTP 3.4 M glycerol, pH 6.9) as described by Andreu and Barasoain. Prior to use, the crosslinked microtubules were dialyzed against PME buffer for 16-18 hr. Crosslinked microtubules (5 μM) and the fluorescent Taxol derivative N-AB-PT (15, 5 μM) in PME buffer were incubated for 20 min at room temperature with 10 μM of Taxol or the Taxoid. The fluorescence emission intensity at 412 nm of each sample was recorded using a Jobin-Yvon Horiba Fluoromax-3 spectrofluorometer in a 2 mm×10 mm quartz cell (1ex=320 nm) and compared to the emission intensity of the system in the absence of competitor.\nFor the fall competition experiment, microtubules, N-AB-PT and varying concentrations of Taxol or 13b (0-30 μM) were treated in the same manner and their emission intensities were measured. The full competition experiment was repeated using pure tubulin assembled by N-AB-PT and identical results were obtained (data not shown)."}, "purified tubulin": {"tested_on": "purified tubulin", "settings": "read-out: ED50, Tb polymerization; Tubulin concentration 5 μM"}, "[4]": {"tested_on": "A2780 ovarian cancer cell line", "settings": "meta-bridged analogs, earlier work (Org. Lett. 2001, 3, 2461); cited from earlier work"}},
  "data": [
    {"smiles": "CC(=O)O[C@H]1C(=O)[C@@]2(C)[C@@H]3[C@H](OC(=O)c4ccccc4)[C@]4(O)C[C@H](OC(=O)[C@H](O)[C@@H](NC(=O)c5ccccc5)c5ccccc5C/C=C\\C(=O)O[C@]35CO[C@@H]5C[C@@H]2O)C(C)=C1C4(C)C", "note": "[Compound 15d]", "values": [
      {"measurement": "times better activity than paclitaxel", "setting": "[1]", "value": 100, "unit": "times"},
      {"measurement": "cytotoxicity against PC3 in words, compared with PTX/Taxol", "setting": "PC-3 prostate cell line", "value": "slightly more cytotoxicity than PTX"},
      {"measurement": "times more potent/active than PTX against A2780", "setting": "[2]", "value": "at least 20 times"}
    ]},
    {"smiles": "CC(=O)O[C@H]1C(=O)[C@@]2(C)[C@@H]3[C@H](OC(=O)c4ccccc4)[C@]4(O)C[C@H](OC(=O)[C@H](O)[C@@H](NC(=O)c5ccccc5)c5ccccc5CCCC(=O)O[C@]35CO[C@@H]5C[C@@H]2O)C(C)=C1C4(C)C", "note": "[Compound 16d]", "values": [
      {"measurement": "times better activity than paclitaxel", "setting": "[1]", "value": 100, "unit": "times"},
      {"measurement": "cytotoxicity against PC3 in words, compared with PTX/Taxol", "setting": "PC-3 prostate cell line", "value": "slightly more cytotoxicity than PTX"},
      {"measurement": "times more potent/active than PTX against A2780", "setting": "[2]", "value": "about 10 times"}
    ]},
    {"smiles": "CC(=O)O[C@H]1C(=O)[C@@]2(C)[C@@H]3[C@H](OC(=O)c4ccccc4)[C@]4(O)C[C@H](OC(=O)[C@H](O)[C@@H](NC(=O)c5ccccc5)c5ccccc5OC/C=C/C(=O)O[C@]35CO[C@@H]5C[C@@H]2O)C(C)=C1C4(C)C", "note": "[Compound 13b]", "values": [
      {"measurement": "Critical Tb conc.", "setting": "GDP-tubulin", "value": "1.2 ± 0.24", "unit": "µM"},
      {"measurement": "Inhibit binding F-Taxol", "setting": "[3]", "value": 30, "unit": "%"},
      {"measurement": "competition experiment with fluorescent Taxol, compared with Taxol/PTX", "setting": "[3]; N-AB-PT 5 μM, increasing competitor (0-30 μM), FIG. 14", "value": "equal affinity"},
      {"measurement": "EC50", "setting": "purified tubulin", "value": "280 ± 110", "unit": "nM"},
      {"measurement": "cytotoxicity against PC3 in words, compared with PTX/Taxol", "setting": "PC-3 prostate cell line", "value": "equipotent with Taxol"},
      {"measurement": "IC50(cp)/IC50(tx) PC3", "setting": "PC-3 prostate cell line", "value": 1.0},
      {"measurement": "cytotoxicity against A2780 in words, compared with PTX/Taxol or related analogs", "setting": "[2]", "value": "equipotent with Taxol"},
      {"measurement": "IC50(cp)/IC50(tx) A2780", "setting": "[2]", "value": 0.97}
    ]},
    {"smiles": "CC(=O)O[C@H]1C(=O)[C@@]2(C)[C@@H]3[C@H](OC(=O)c4ccccc4)[C@]4(O)C[C@H](OC(=O)C(O)C(NC(=O)c5ccccc5)c5cccc(c5)OC/C=C\\CCC(=O)O[C@]35CO[C@@H]5C[C@@H]2O)C(C)=C1C4(C)C", "note": "(stereo partly shown) [Compound 16]", "values": [
      {"measurement": "potency as cytotoxins, fold less than Taxol/PTX", "setting": "[4]", "value": "less than one-tenth the activity of Taxol"}
    ]},
    {"smiles": "CC(=O)OC1C(=O)C2(C)C(O)CC3OCC34OC(=O)CCCc3ccccc3C(NC(=O)c3ccccc3)C(O)C(=O)OC3CC(O)(C(OC(=O)c5ccccc5)C42)C(C)(C)C1=C3C", "note": "(stereo not shown) [Compound 14a]", "values": [
      {"measurement": "Critical Tb conc.", "setting": "GDP-tubulin", "value": "0.35 ± 0.06", "unit": "µM"},
      {"measurement": "Inhibit binding F-Taxol", "setting": "[3]", "value": 79, "unit": "%"},
      {"measurement": "EC50", "setting": "purified tubulin", "value": "210 ± 90", "unit": "nM"},
      {"measurement": "cytotoxicity against PC3 in words, compared with PTX/Taxol", "setting": "PC-3 prostate cell line", "value": "more potent than Taxol"},
      {"measurement": "IC50(cp)/IC50(tx) PC3", "setting": "PC-3 prostate cell line", "value": 0.67},
      {"measurement": "cytotoxicity against A2780 in words, compared with PTX/Taxol or related analogs", "setting": "[2]", "value": "more potent than Taxol"},
      {"measurement": "IC50(cp)/IC50(tx) A2780", "setting": "[2]", "value": 0.08}
    ]}
  ]
}
